# Laboratory results from publication PMC4917822, “pH-Selective Cytotoxicity of pHLIP-Antimicrobial Peptide Conjugates” (Scientific Reports, 2016).
# Bridges are numbered along the chain shown (N, C = ends). Roman numbers before positions name the chains, in order. Where no end group is shown, it is not given here.
# Columns and labels:
# MDA-MB-231 cells [1] = experiment: Annexin V-Alexa Fluor 488 / MitoTracker Red dual staining by flow cytometry; assay type: cell-based, Human; settings: for PS externalization (Annexin V) and loss of mitochondrial membrane potential (MitoTracker Red) at low pH / Annexin V / MitoTracker Red effects 6 hours post-treatment: 10 μM; for PS externalization (Annexin V) and loss of mitochondrial membrane potential (MitoTracker Red) at low pH: 2 h at pH 5.0, 24 h recovery, n = 3; for Annexin V / MitoTracker Red effects 6 hours post-treatment: 2 h at pH 7.4 or 5.0, 6 h recovery, n = 3 (Figure S3)
# MDA-MB-231 cells [2] = experiment: Lactate dehydrogenase (LDH) release assay; assay type: cell-based, Human; settings: 10 μM free peptide, 2 h at pH 5.0
# From the text: (§1) First, we assessed the effect of the conjugates on the integrity of cell membranes based on the uptake of Trypan Blue, which can be taken up by cells only if their plasma membrane is disrupted. […] We also measured the release of the intracellular enzyme lactate dehydrogenase (LDH) after peptide treatment, as another method to evaluate plasma membrane damage. […] Importantly, it was previously shown that neither pHLIP alone nor low pH treatments disrupts membranes, including that of MDA-MB-231 cells[20][23] (Figure S1).
# (§2) Figure 4 Effect of free peptides and pHLIP-conjugates on Plasma Membrane Integrity and Lactate Dehydrogenase (LDH) Release. (A) The integrity of the plasma membrane is assessed by the uptake of trypan blue dye. […] Cells were detached and counted based on trypan blue uptake with an hemacytometer: % of intact cells corresponds to the number of cells not showing any dye uptake over the total number of cells. […] Cell media supernatant was monitored for the presence of LDH following treatment. […]
# (§3) For the Trypan Blue plasma membrane integrity assays cells were seeded in 96-well plates at a density of 3,000 cells/well and incubated until confluent (~72 hours). […] After treatment, the media was removed, cells were detached using trypsin and counted based on trypan blue uptake using an hemacytometer. […] Percent LDH release was calculated against control cells treated with media at physiologic pH.
# [3] = tested on: MDA-MB-231 breast cancer cells; experiment: Anti-proliferation assay (MTT) after 2 h treatment at pH 7.4 or 5.0; assay type: cell-based, Human; settings: for enhancement of cytotoxicity of free peptide at low pH: pH 5.0, 10 μM; for enhancement of cytotoxicity of free peptide at low pH / cytotoxicity of free peptide at physiological pH: n = 9; for cytotoxicity of free peptide at physiological pH: pH 7.4, 72 h recovery
# Method: We have previously shown that this treatment protocol and pHLIP alone have no effect on MDA-MB-231 cell viability.
# Figure 2 Inhibition of cell growth. MDA-MB-231 cells treated with 4-amino acid pHLIP-KLAKS conjugates. Black columns represent cells treated at pH 7.4 and cells treated at low pH are shown in grey. For each condition, 3,000 cells/well (96-well plate) were seeded, allowed to adhere overnight, treated for 2 hours, washed once with media and cultured for 72 hour in complete medium at physiologic pH. Cell viability was assessed with the MTT assay. All measurements were normalized to the media control (0 μM, pH 7.4), as 100% cell viability. Results are shown as mean ± SEM (n = 9–12).
# For each condition, 3,000 cells/well (96-well plate) were seeded, allowed to adhere overnight, treated for 2 hours, washed once with media and cultured for 72 hour in complete medium at physiologic pH. Cell viability was assessed with the MTT assay. All measurements were normalized to the media control (0 μM, pH 7.4), as 100% cell viability. Results are shown as mean ± SEM (n = 9–12). Data at pH 5.0 (A and B) were fitted with a sigmoidal dose-response using Prism 6 for Macintosh (GraphPad, Inc).
# Figure 5 Effect of free peptides on cell viability. MDA-MB-231 cells were treated with 10 μM of either (KLAKLAK)2 (A) or KLAKLAK (B) at pH 7.4 (black circles) or pH 5.0 (grey squares) for 2 hours, washed once with media and cultured for 72 hours in complete medium at physiologic pH. Cell viability was assessed with the MTT assay, and all measurements were normalized to the media control (0 μM, pH 7.4), as 100% cell viability. Results are shown as mean ± SEM (n = 9).
# Cells were seeded in 96-well plates at a density of 3,000 cells/well and incubated overnight. […] Treatment solutions were collected and their pH values measured using a micro-combination pH probe (Microelectrodes, Inc.). […] Cell viability was determined after 72 hours using the colorimetric MTT assay. Briefly, 10 μL of a 5 mg/mL MTT stock solution was added to the treated cells and incubated for 2 hours at 37 °C. The resulting formazan crystals were solubilized in 200 μL DMSO and the absorbance measured at 580 nm using an Infinite 200 PRO microplate reader (Tecan). Cell viability was calculated against control cells treated with media at physiologic pH. When needed, data were fitted with a sigmoidal dose-response using Prism 5 for Macintosh (GraphPad, Inc). […]
# Figure S1. Effect of Free Peptides on Cell Viability and Plasma Membrane Integrity. For each condition, 3,000 cells/well (96-well plate) were seeded, incubated until confluent (~72 hours) and treated for 2 hours with 10 µM of free pHLIP(WT) or free tetrapeptides at pH 7.4 (black bars) and a low pH (grey bars). (A) Cell viability assay. After the 2-hour treatment, cells were washed once with media and cultured for 72 hour in complete medium at physiologic pH. Cell viability was assessed with the MTT assay. All measurements were normalized to the media control (0 µM, pH 7.4), as 100% cell viability. Results are shown as mean ± SEM (n=9-12). (B) After the 2-hour treatment, cells were detached and counted based on trypan blue uptake with an hemacytometer: % of intact cells corresponds to the number of cells not showing any dye uptake over the total number of cells. Results are shown as mean ± SD (n=3).
# caspases 3 and 7 = settings: MDA-MB-231; 10 μM; 2 h at pH 7.4 or 5.0; monitored at 24, 48 and 72 hours; fluorescence 485/530 nm; n = 3 (Figure S5)
# Method: Before treatment, construct aliquots were solubilized in an appropriate volume of DMEM without FBS (pH 7.4) so that upon pH adjustment 10 μM is obtained. […]
# [4] = tested on: MDA-MB-231 breast cancer cells; settings: cited from earlier work
# MDA-MB-231 cells [5] = experiment: Trypan Blue plasma membrane integrity assay; assay type: cell-based, Human; settings: 10 μM, 2 h at pH 7.4 or pH 5.0, % intact cells counted with hemacytometer, mean ± SD, n = 3
# From the text: as §1, §2
# as §3, with “pH. […]” for “pH.”
Molecule,LDH release 24 hours post-treatment at low pH (MDA-MB-231 cells [2]),enhancement of cytotoxicity of free peptide at low pH ([3]; 72 h recovery),cytotoxicity of free peptide at physiological pH [3],PS externalization (Annexin V) and loss of mitochondrial membrane potential (MitoTracker Red) at low pH (MDA-MB-231 cells [1]),Annexin V / MitoTracker Red effects 6 hours post-treatment (MDA-MB-231 cells [1]),also measured
"CN[C@@H]1C[C@H]2O[C@@](C)([C@@H]1OC)n1c3ccccc3c3c4c(c5c6ccccc6n2c5c31)C(=O)NC4 [staurosporine, reference compound]",,,,,,"Annexin V / MitoTracker Red population shift (positive control) (MDA-MB-231 cells [1]; 1 μM for 6 or 24 hours, n = 3 (Figure S4)): clear shift in cell population"
CKLAKLAK,some LDH release,only a modest one,not significantly toxic,only a modest one,no evidence of these effects,caspase 3/7 activation (caspases 3 and 7): neither treatments with pHLIP-KLAKLAK or KLAKLAK induces any significant caspase activation
"CKLAKLAKKLAKLAK [(KLAKLAK)2, cationic antimicrobial peptide cargo, synthesized with N-terminal Cys, amidated C-terminus]",some LDH release,greatest enhancement,not significantly toxic,largest effect,no evidence of these effects,
GGEQNPIYWARYADWLFTTPLLLLDLALLVDADEGTCG (H-GGEQNPIYWARYADWLFTTPLLLLDLALLVDADEGTCG-NH2) [pHLIP(WT)],,,,,,"effect of free peptide on cell viability (Figure S1A) ([3]; 10 μM free peptide, pH 7.4 and low pH, 72 h recovery, n = 9-12): neither pHLIP(WT) nor the tetrapeptides has any significant harmful effects; effect of pHLIP alone on MDA-MB-231 cell viability [4]: no effect; plasma membrane integrity (trypan blue uptake) (MDA-MB-231 cells [5]): neither pHLIP(WT) nor the tetrapeptides has any significant harmful effects"
I: GGEQNPIYWARYADWLFTTPLLLLDLALLVDADEGTCG-NH2 / II: CKAAK-NH2 (disulfide I:37-II:1) [pHLIP-KAAK],,,,,,"overall cell proliferation inhibition relative to the other 4-amino acid conjugates ([3]; low pH, 1.25–10 μM, 72 h recovery): lower than pHLIP-KGGK"
